# Laboratory results from patent US5250562A, “Stilbene derivatives” (Hoffmann-La Roche Inc., priority 1988, dated 1993).
# Tested on: chemically induced mammary tumours
# Assay: activity against chemically induced (oral administration of dimethylbenzanthracene) mammary tumours in rats
# Format: in vivo
# Conditions: for Increase or decrease in the average number of tumours per rat: control group +242; for Increase or decrease in the average tumour volume per rat in mm^3: control group +714
# Description: The biological activity of the compounds in accordance with the invention can be determined e.g. using the test procedures described in German Offenlegungsschrift 3 715 955.
smiles,measurement,setting,value
"C/C(=C\c1ccc(OCCN2CCOCC2)cc1)c1ccc2c(c1)C(C)(C)CCC2(C)C [4-[2-[p-[(E)-2-(5,6,7,8-tetrahydro-5,5,8,8-tetramethyl-2-naphthyl)propenyl]phenoxy]ethyl]morpholine]",Rats with tumours,50 mg/kg/day p.o.,100 % of controls
same,Increase or decrease in the average number of tumours per rat,50 mg/kg/day p.o.,+91
same,Increase or decrease in the average tumour volume per rat in mm^3,50 mg/kg/day p.o.,+550 mm^3
same,Rats with tumours,100 mg/kg/day p.o.,50 % of controls
same,Increase or decrease in the average number of tumours per rat,100 mg/kg/day p.o.,-73
same,Increase or decrease in the average tumour volume per rat in mm^3,100 mg/kg/day p.o.,-77 mm^3
same,Rats with tumours,200 mg/kg/day p.o.,10 % of controls
same,Increase or decrease in the average number of tumours per rat,200 mg/kg/day p.o.,-96
same,Increase or decrease in the average tumour volume per rat in mm^3,200 mg/kg/day p.o.,-99 mm^3
